SMILES strings stand for the structures. Several values for one entry are separate records, joined by “and”; a condition that tells them apart may be missing. Equal values may be shown once.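 Method: 48-hour compound exposure of cells in 96-well plates, five concentrations, linear interpolation of endpoints. The concentration for 50% growth inhibition is given as GI50. TGI is the concentration that stops growth completely.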

Test systems include UO-31 renal; ACHN renal; OVCAR-3 ovarian; KM12 colon; SF-268 CNS; SF-539 CNS; HS 578T breast; SK-OV-3 ovarian; DU-145 prostate; CAKI-1 renal.
Holding throughout (assay): NCI anticancer screen, dose series, 48 h

Turning to `CC(C)C[C@H](NC(=O)[C@H](Cc1ccccc1)n1ccc(N2CCCCC2)cc1=O)B(O)O`, the GI50 is 0.981 µM with UO-31 renal; 0.406 µM with ACHN renal; 0.327 µM in the experiment on OVCAR-3 ovarian; 1.33 µM in the experiment on KM12 colon; 0.699 µM with SF-268 CNS; 0.206 µM with SF-539 CNS. The GI50 is 0.427 µM in the experiment with HS 578T breast, 2.36 µM with SK-OV-3 ovarian, 0.706 µM in the experiment on DU-145 prostate and 0.467 µM in the experiment with CAKI-1 renal. Besides, the TGI in the experiment on UO-31 renal is 15.4 µM; with ACHN renal, above 100 µM; with OVCAR-3 ovarian, 1.21 µM; in the experiment on KM12 colon, 4.38 µM; in the experiment with SF-268 CNS it was 3.85 µM; in the experiment on SF-539 CNS it was 0.604 µM. Also, the TGI was 6.2 µM in the experiment with HS 578T breast, 71.5 µM in the experiment on SK-OV-3 ovarian, above 100 µM in the experiment on DU-145 prostate and 10 µM with CAKI-1 renal.
As for `CCC/C(=N\NC(=S)N1CCN(c2ccccn2)CC1)c1ccccn1`, the GI50 in the experiment on UO-31 renal was 0.0529 µM; with ACHN renal, 0.0156 µM; in the experiment with SF-539 CNS, 0.15 µM and 0.145 µM; in the experiment on SK-OV-3 ovarian, 1.34 µM; in the experiment on CAKI-1 renal it was 0.0143 µM. The TGI with UO-31 renal was 3.42 µM and 1.44 µM; in the experiment on ACHN renal, > 3.16 µM and 1.24 µM; in the experiment on OVCAR-3 ovarian it was 0.615 µM and 1.14 µM; in the experiment on KM12 colon it was 0.64 µM and 1.52 µM; with SF-268 CNS, > 10 µM and 1.85 µM; in the experiment with SF-539 CNS, 1.82 µM and 1.11 µM. Besides, the TGI was 3.76 µM with HS 578T breast; 2.15 µM and 2.68 µM with SK-OV-3 ovarian; 2.37 µM in the experiment with DU-145 prostate; > 5.37 µM and 1.92 µM in the experiment with CAKI-1 renal.
In the case of `Cn1ccnc1C(=O)/C=C/c1ccc(CC(=O)Nc2ccc(Cl)cc2)cc1`, the GI50 in the experiment on UO-31 renal is 2.27 µM; with ACHN renal, 15 µM; with OVCAR-3 ovarian, 1.03 µM; in the experiment on KM12 colon it was 1.51 µM; with SF-268 CNS it was 1.24 µM; with SF-539 CNS it was 6.4 µM. Also, the GI50 with HS 578T breast was 15.7 µM; in the experiment with SK-OV-3 ovarian it was 8.79 µM; in the experiment on DU-145 prostate, 1.42 µM; in the experiment on CAKI-1 renal it was 13.5 µM. Besides, the TGI in the experiment with UO-31 renal, with ACHN renal, in the experiment with OVCAR-3 ovarian, with KM12 colon, in the experiment on SF-268 CNS and with SF-539 CNS was above 25 µM each time. Besides, the TGI in the experiment on HS 578T breast, in the experiment on SK-OV-3 ovarian, with DU-145 prostate and in the experiment with CAKI-1 renal was above 25 µM each time.
Regarding `CN1CCN(Cc2ccc(-c3cc4ncnc(Nc5ccc(OCc6cccc(F)c6)c(Cl)c5)c4s3)o2)CC1`, the GI50 in the experiment on UO-31 renal was 3.3 µM; in the experiment with ACHN renal it was 3.26 µM; in the experiment on OVCAR-3 ovarian, 4.23 µM; with KM12 colon, 4.44 µM; with SF-268 CNS, 4.07 µM; in the experiment with SF-539 CNS it was 4.17 µM. Further, the GI50 is 5.57 µM with HS 578T breast, 4.67 µM in the experiment with SK-OV-3 ovarian, 4.03 µM in the experiment with DU-145 prostate and 3.33 µM with CAKI-1 renal. Also, the TGI turned out to be 7.37 µM in the experiment on UO-31 renal; 6.95 µM with ACHN renal; 8.01 µM in the experiment on OVCAR-3 ovarian; 8.19 µM in the experiment on KM12 colon; 8.7 µM in the experiment on SF-268 CNS; 8.55 µM in the experiment on SF-539 CNS. In addition, the TGI in the experiment on HS 578T breast was determined as 12.7 µM; in the experiment on SK-OV-3 ovarian, 9.97 µM; in the experiment on DU-145 prostate, 7.47 µM; in the experiment on CAKI-1 renal it was 7.98 µM.
For the compound `O=C1c2ccccc2-c2c1c1ccccc1c(=O)n2CCCNCCCn1c2c(c3ccccc3c1=O)C(=O)c1ccccc1-2`, the GI50 in the experiment on UO-31 renal is 2.16 µM; in the experiment with ACHN renal, 0.814 µM; in the experiment on OVCAR-3 ovarian, 5.42 µM; with KM12 colon, 2.9 µM; in the experiment with SF-268 CNS, 7.13 µM; with SF-539 CNS, 3.83 µM. In addition, the GI50 is 9.54 µM in the experiment with HS 578T breast, 11.7 µM in the experiment with SK-OV-3 ovarian, 1.49 µM in the experiment on DU-145 prostate and 8.12 µM in the experiment on CAKI-1 renal. The TGI with UO-31 renal is above 50 µM; with ACHN renal it was 8.81 µM; with OVCAR-3 ovarian, 16.5 µM; in the experiment with KM12 colon, 9.65 µM; with SF-268 CNS, above 30.6 µM; in the experiment on SF-539 CNS, 13 µM. Also, the TGI in the experiment with HS 578T breast amounted to 32.9 µM; in the experiment with SK-OV-3 ovarian, 40.5 µM; in the experiment on DU-145 prostate it was 5.85 µM; in the experiment on CAKI-1 renal, 17.5 µM.
As for `O=C1OC(c2ccco2)=N/C1=C\c1ccc(Cl)c(Cl)c1`, the TGI in the experiment with ACHN renal, with OVCAR-3 ovarian, in the experiment with KM12 colon, in the experiment on SF-268 CNS, with SF-539 CNS and in the experiment on HS 578T breast was above 100 µM in each case. In addition, the TGI in the experiment with SK-OV-3 ovarian, in the experiment on DU-145 prostate and in the experiment on CAKI-1 renal was above 100 µM each time.
On to `COc1ccc(CN2C(=O)/C(=C\c3cc(OC)c(OC)c(OC)c3)c3cc(OC)ccc32)cc1`, for which the GI50 is 2.67 µM in the experiment with UO-31 renal; 1.73 µM in the experiment on ACHN renal; 2.14 µM in the experiment on OVCAR-3 ovarian; 2.04 µM in the experiment with KM12 colon; 2.68 µM in the experiment with SF-268 CNS; 1.86 µM in the experiment with SF-539 CNS. Also, the GI50 in the experiment on HS 578T breast was 2.4 µM; with SK-OV-3 ovarian, 3.12 µM; in the experiment with DU-145 prostate, 2.96 µM; in the experiment on CAKI-1 renal, 2.95 µM. Also, the TGI in the experiment with UO-31 renal was 10.7 µM; with ACHN renal it was 3.2 µM; with OVCAR-3 ovarian it was 4.7 µM; in the experiment with KM12 colon it was 4.05 µM; in the experiment on SF-268 CNS it was 7.05 µM; in the experiment with SF-539 CNS, 3.76 µM. In addition, the TGI with HS 578T breast was 8.72 µM; in the experiment with SK-OV-3 ovarian it was 13.1 µM; in the experiment with DU-145 prostate it was 7.64 µM; with CAKI-1 renal, above 22.2 µM.
For `COc1ccc(C(=O)/C=C/c2ccc(O)c(O)c2F)c(OC)c1`, the GI50 is 7.04 µM in the experiment with UO-31 renal; 5.49 µM in the experiment with ACHN renal; 2.63 µM in the experiment on OVCAR-3 ovarian; 8.75 µM in the experiment with SF-268 CNS; 4.5 µM with SF-539 CNS; 7.34 µM in the experiment with HS 578T breast. Moreover, the GI50 in the experiment with SK-OV-3 ovarian was 17.6 µM; in the experiment on DU-145 prostate, 5.38 µM; in the experiment with CAKI-1 renal, 5.73 µM. Besides, the TGI is 16.3 µM and 38.4 µM in the experiment with UO-31 renal; 25.6 µM and > 100 µM with ACHN renal; 27.8 µM and 23.9 µM in the experiment on KM12 colon; 75 µM and 59.1 µM with SF-268 CNS; 15.7 µM and 28.5 µM in the experiment on SF-539 CNS; 75 µM and > 100 µM in the experiment with HS 578T breast. For the same compound, the TGI with SK-OV-3 ovarian was 47 µM and 90.3 µM; in the experiment on DU-145 prostate, 16.2 µM and 19 µM; in the experiment on CAKI-1 renal, 75 µM and 44.9 µM.

(Values after PubChem BioAssay (NCI).)
